What all share (test): DTP human tumour cell line panel, 48 h
The test system of experiment [1] is HS 578T breast.
Experiment [2] deals with CAKI-1 renal.
For experiment [3], the system named is M14 melanoma.
The subject of experiment [4] is SK-MEL-5 melanoma.
Experiment [5] deals with UO-31 renal.
Experiment [6] has as its system COLO 205 colon.
Experiment [7] concerns NCI-H460 lung.
In experiment [8] the test system is SNB-19 CNS.
Experiment [9] concerns A549 NSCLC.
Experiment [10] deals with SK-OV-3 ovarian.

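48-hour exposure; five concentrations; linearly interpolated endpoints. TGI: concentration producing complete growth inhibition.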 Some results are limits rather than exact numbers.

Broadly, the TGI is the concentration giving total growth inhibition. A higher TGI goes with lower sensitivity of the cells.

Consider `CCCCN1/C(=N/Nc2n[nH]c(=O)c3ccccc23)SCC1c1ccc(Cl)cc1` (stereo not given), for which the total growth inhibition concentration (TGI) in experiment [1] was 56.2 µM; in experiment [2] it was 77.4 µM; in [3], 19.5 µM; in [4] it was 14.3 µM; in [5], 93.3 µM; in experiment [6], greater than 100 µM. For the same molecule, the TGI in experiment [7] was 24.8 µM; in experiment [8], 42 µM; in experiment [9], greater than 100 µM; in experiment [10], greater than 100 µM.

With `Nc1c(/C=C/c2cc3cc(C4=NCCN4)ccc3o2)[nH]c2cc(C3=NCCN3)ccc12`, the TGI in experiment [1], in experiment [2], in [3], in experiment [4], in experiment [5] and in [6] was greater than 100 µM each time. Further, the TGI in experiment [7], in experiment [8], in experiment [9] and in experiment [10] was greater than 100 µM each time.

For the molecule `CO[C@@H](c1ccccc1)[C@H](O)[C@@](O)(c1ccccc1)P(=O)(OC)OC`, the TGI in [1], in [2], in [3], in [4], in experiment [5] and in [6] was greater than 100 µM each time. In addition, the TGI in [7], in experiment [8], in experiment [9] and in experiment [10] was greater than 100 µM each time.

As to `CO/C(N)=C(\C#N)N=Cc1cccs1`, the TGI in experiment [1], in experiment [2], in experiment [3], in experiment [4], in [5] and in experiment [6] was greater than 100 µM each time. The TGI in [7], in experiment [8], in experiment [9] and in [10] was greater than 100 µM each time.

Take `CC(=O)Oc1c(OC(C)C)cc(=O)n2ccsc12`: the TGI in [1], in experiment [2], in experiment [3], in experiment [4], in experiment [5] and in experiment [6] was greater than 100 µM in each case. The TGI in experiment [7], in [8], in experiment [9] and in experiment [10] was greater than 100 µM throughout.

As for `CCOC(=O)c1ccc(-c2cccs2)[nH]1`, the TGI in experiment [1] was greater than 100 µM; in [2], greater than 100 µM; in [3], greater than 100 µM; in [4], greater than 100 µM; in experiment [5], greater than 89 µM; in experiment [6] it was greater than 100 µM. In addition, the TGI in experiment [7], in experiment [8], in [9] and in experiment [10] was greater than 100 µM in each case.

Turning to `CCCCCCCCCCCCCCCC(=O)OCC(COP(=O)(O)OCCNC(=O)CCSSc1ccccn1)OC(=O)CCCCCCCCCCCCCCC` (stereo not given), the TGI in experiment [1], in [2], in experiment [3], in [4], in [5] and in experiment [6] was greater than 100 µM in each case. Further, the TGI in [7], in experiment [8], in experiment [9] and in experiment [10] was greater than 100 µM each time.

With `CNc1nc(OC)c2c(n1)[n+](C)cn2C`, the TGI in experiment [1], in [2], in experiment [3], in experiment [4], in [5] and in experiment [6] was greater than 100 µM in each case. In addition, the TGI in [7], in [8], in experiment [9] and in experiment [10] was greater than 100 µM throughout.

`Nc1nc2c(ccc3ccccc32)[nH]1`: the TGI in experiment [1], in [2], in [3], in experiment [4], in experiment [5] and in [6] was greater than 10 µM each time. In addition, the TGI in experiment [7], in experiment [8], in [9] and in experiment [10] was greater than 10 µM throughout.

Consider `COc1ccc2c(C=O)c3n(c(=O)c2c1OC)CCc1cc2c(cc1-3)OCO2`, for which the concentration for total growth inhibition (TGI) in experiment [1] is greater than 100 µM; in experiment [2], greater than 100 µM; in experiment [3], greater than 100 µM; in experiment [4], greater than 100 µM; in experiment [5], greater than 100 µM; in [6], 82 µM. Moreover, the TGI in experiment [7], in experiment [8], in [9] and in experiment [10] was greater than 100 µM each time.

For `N=c1sc(N2CCOCC2)nn1CC(=O)c1ccccc1`, the TGI in [1], in [2], in experiment [3], in experiment [4], in experiment [5] and in experiment [6] was greater than 100 µM in each case. The TGI in experiment [7], in experiment [8], in experiment [9] and in [10] was greater than 100 µM each time.

For the molecule `CCN(CC)CCCNc1nnc(C)c2[nH]c3ccccc3c12`, the TGI in [1] was 38 µM; in experiment [2], greater than 100 µM; in experiment [3], 32.4 µM; in experiment [4], 27.8 µM; in [5], greater than 100 µM; in experiment [6], 13.1 µM. In addition, the TGI in experiment [7] is 30.9 µM; in [8], greater than 100 µM; in experiment [9] it was 53 µM; in experiment [10], 46.8 µM.

For the molecule `CCOC(=O)c1c(SCCN(CC)CC)n(-c2ccccc2)c(=S)n(-c2ccccc2)c1=O`, the TGI came out at 28 µM in experiment [1]; 4.68 µM in experiment [2]; 3.13 µM in experiment [3]; 7.6 µM in experiment [4]; 3.12 µM in experiment [5]; 6.2 µM in experiment [6]. For the same molecule, the TGI in experiment [7] was 15.6 µM; in experiment [8], 31.9 µM; in [9], 9.42 µM; in experiment [10], 40.2 µM.

Source of the values: PubChem BioAssay (NCI).
